Experimental data published in publication PMC4548311 (Journal of Biomolecular Structure & Dynamics, 2014).

Legend:
R361A mutant NP = R361A mutant NP (Influenza A virus, UniProt P15682, R361A)
influenza A virus = details: cited from earlier work

COc1ccc2cc([C@H](C)C(=O)O)ccc2c1 [Naproxen, naproxen]
stabilization of R361A monomers (R361A mutant NP): No stabilization

CCOC(=O)C1=C[C@@H](OC(CC)CC)[C@H](NC(C)=O)[C@@H](N)C1 [tamiflu]
emergence of resistant virus (influenza A virus): generated after four passages
